Our source for the EC50 values is patent publication US9663473B2 (Actelion Pharmaceuticals Ltd, priority 2013, dated 2017).

The assay deals with T1, recombinant human ALX receptor (Homo sapiens, UniProt P25090).
T1 construct: expressed in transfected cells; host or cells: HEK293 (HEK293-hALXR-Gα16)
T1 sequence (P25090 1-351): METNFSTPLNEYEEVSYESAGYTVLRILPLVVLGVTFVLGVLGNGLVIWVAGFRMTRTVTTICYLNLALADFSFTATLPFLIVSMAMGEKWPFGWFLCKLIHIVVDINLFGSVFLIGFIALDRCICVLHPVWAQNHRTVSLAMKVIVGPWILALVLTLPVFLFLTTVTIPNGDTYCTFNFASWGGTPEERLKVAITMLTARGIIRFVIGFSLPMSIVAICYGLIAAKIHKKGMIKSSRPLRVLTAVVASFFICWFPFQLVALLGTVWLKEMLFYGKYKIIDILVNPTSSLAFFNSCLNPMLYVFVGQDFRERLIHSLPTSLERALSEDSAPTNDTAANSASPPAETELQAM
The experiment in a line: Intracellular calcium measurements (FLIPR), ALX receptor agonistic activity. Particulars: HEK293-hALXR-Gα16 cells, Fluo-4 calcium signal, normalized to WKYMVm 10 nM. Type of assay: cell-based. The procedure, abridged:
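HEK293 cells co-expressing human ALX receptor and Gα16 were loaded with 1 μM Fluo-4 AM for 60 min at 37° C., then exposed to serially diluted compounds on FLIPR Tetra. Peak fluorescence above baseline (ex 488/em 540 nm) was normalized to 10 nM WKYMVm as high control.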

Structures are written as SMILES.

In the case of `COc1ccc(C[C@@H](NC(=O)NCCC2CCN(C)CC2)c2nc3ccccc3[nH]2)cc1` [Example 160, (R)-1-(1-(1H-Benzo[d]imidazol-2-yl)-2-(4-methoxyphenyl)ethyl)-3-(2-(1-methylpiperidin-4-yl)ethyl)urea], the EC50 worked out at 0.151 µM. In the case of `COC(=O)N1CC2CCC1CN2C(=O)N[C@H](Cc1ccc(OC)cc1)c1nc2ccccc2[nH]1` (stereo partly drawn) [Example 162, Methyl 5-(((R)-1-(1H-benzo[d]imidazol-2-yl)-2-(4-methoxyphenyl)ethyl)carbamoyl)-2,5-diazabicyclo[2.2.2]octane-2-carboxylate] it was 0.866 µM; in that of `COc1ccc(C[C@@H](NC(=O)NC23CCC(O)(CC2)CC3)c2nc3ccccc3[nH]2)cc1` [Example 166, (R)-1-(1-(1H-Benzo[d]imidazol-2-yl)-2-(4-methoxyphenyl)ethyl)-3-(4-hydroxybicyclo[2.2.2]octan-1-yl)urea], 0.0021 µM.

Consider `COc1ccc(C[C@@H](NC(=O)N2CC3CCC2CN3C)c2nc3ccccc3[nH]2)cc1` (stereo partly drawn) [Example 168, N—((R)-1-(1H-Benzo[d]imidazol-2-yl)-2-(4-methoxyphenyl)ethyl)-5-methyl-2,5-diazabicyclo[2.2.2]octane-2-carboxamide], for which the EC50 was 0.087 µM. On to `COc1ccc(CC(NC(=O)Nc2ccccc2)c2nc3ccccc3[nH]2)cc1` (stereo not drawn) [Example 169, 1-(1-(1H-Benzo[d]imidazol-2-yl)-2-(4-methoxyphenyl)ethyl)-3-phenylurea], for which the EC50 was 0.051 µM.

In the case of `COc1ccc(C[C@@H](NC(=O)NC23CCN(CC2)CC3)c2nc3ccccc3[nH]2)cc1` [Example 170, (R)-1-(1-(1H-Benzo[d]imidazol-2-yl)-2-(4-methoxyphenyl)ethyl)-3-(quinuclidin-4-yl)urea], the EC50 was determined as 0.076 µM.

Regarding `COc1ccc(C[C@@H](NC(=O)N[C@H]2CC[C@](C)(O)CC2)c2nc3ccccc3[nH]2)cc1` [Example 173, 1-((R)-1-(1H-Benzo[d]imidazol-2-yl)-2-(4-methoxyphenyl)ethyl)-3-(trans-4-hydroxy-4-methylcyclohexyl)urea], the EC50 came out at 0.0031 µM. For the compound `COc1ccc(C[C@@H](NC(=O)NC2CCNC(=O)C2)c2nc3ccccc3[nH]2)cc1` (stereo partly drawn) [Example 174, 1-((R)-1-(1H-Benzo[d]imidazol-2-yl)-2-(4-methoxyphenyl)ethyl)-3-(2-oxopiperidin-4-yl)urea], the concentration for a half-maximal effect (EC50) amounted to 0.288 µM. Take `COc1ccc(CC(NC(=O)NC2CCCC2)c2nc3ccccc3[nH]2)cc1F` (stereo not drawn) [Example 175, 1-(1-(1H-Benzo[d]imidazol-2-yl)-2-(3-fluoro-4-methoxyphenyl)ethyl)-3-cyclopentylurea]: the EC50 worked out at 0.209 µM. In the case of `COc1ccc(CC(NC(=O)NC2CC(C)(C)NC(C)(C)C2)c2nc3ccccc3[nH]2)cc1F` (stereo not drawn) [Example 176, 1-(1-(1H-Benzo[d]imidazol-2-yl)-2-(3-fluoro-4-methoxyphenyl)ethyl)-3-(2,2,6,6-tetramethylpiperidin-4-yl)urea] it was 0.058 µM; in that of `COc1ccc(C[C@@H](NC(=O)Nc2cccc(OC)c2)c2nc3ccccc3[nH]2)cc1` [Example 177, (R)-1-(1-(1H-Benzo[d]imidazol-2-yl)-2-(4-methoxyphenyl)ethyl)-3-(3-methoxyphenyl)urea], 0.247 µM; in that of `COc1ccc(C[C@@H](NC(=O)Nc2ccccc2OC)c2nc3ccccc3[nH]2)cc1` [Example 178, (R)-1-(1-(1H-Benzo[d]imidazol-2-yl)-2-(4-methoxyphenyl)ethyl)-3-(2-methoxyphenyl)urea], 0.699 µM. On to `COc1ccc(C[C@@H](NC(=O)N[C@H]2CC[C@H](O)CC2)c2nc3cc(Br)ccc3[nH]2)cc1` [Example 179, 1-((R)-1-(5-Bromo-1H-benzo[d]imidazol-2-yl)-2-(4-methoxyphenyl)ethyl)-3-(trans-4-hydroxycyclohexyl)urea], for which the concentration for a half-maximal effect (EC50) is 0.0011 µM.

On to `COc1ccc(C[C@@H](NC(=O)NC2CCCN(CCF)C2)c2nc3ccccc3[nH]2)cc1` (stereo partly drawn) [Example 180, 1-((R)-1-(1H-Benzo[d]imidazol-2-yl)-2-(4-methoxyphenyl)ethyl)-3-(1-(2-fluoroethyl)piperidin-3-yl)urea], for which the EC50 came to 0.059 µM.

With `COc1ccc(C[C@@H](NC(=O)NC2CCN(CCF)CC2)c2nc3ccccc3[nH]2)cc1` [Example 181, (R)-1-(1-(1H-Benzo[d]imidazol-2-yl)-2-(4-methoxyphenyl)ethyl)-3-(1-(2-fluoroethyl)piperidin-4-yl)urea], the 50% effective concentration (EC50) stood at 0.088 µM. Take `COc1ccc(C[C@@H](NC(=O)NC2CCN(CC(F)F)CC2)c2nc3ccccc3[nH]2)cc1` [Example 182, (R)-1-(1-(1H-Benzo[d]imidazol-2-yl)-2-(4-methoxyphenyl)ethyl)-3-(1-(2,2-difluoroethyl)piperidin-4-yl)urea]: the concentration for a half-maximal effect (EC50) came out at 0.04 µM. Take `COc1ccc(C[C@@H](NC(=O)N[C@H]2CC[C@@H](O)CC2)c2nc3ccccc3[nH]2)cc1` [Example 183, 1-((R)-1-(1H-Benzo[d]imidazol-2-yl)-2-(4-methoxyphenyl)ethyl)-3-(cis-4-hydroxycyclohexyl)urea]: the EC50 was determined as 0.058 µM. Turning to `COc1ccc(C[C@@H](NC(=O)NC2CCCN(CC(F)F)C2)c2nc3ccccc3[nH]2)cc1` (stereo partly drawn) [Example 186, 1-((R)-1-(1H-Benzo[d]imidazol-2-yl)-2-(4-methoxyphenyl)ethyl)-3-(-1-(2,2-difluoroethyl)piperidin-3-yl)urea], the concentration giving a half-maximal response (EC50) was 0.029 µM. In the case of `COc1ccc(C[C@@H](NC(=O)N[C@H]2CC[C@@](C)(O)CC2)c2nc3ccccc3[nH]2)cc1` [Example 189, 1-((R)-1-(1H-Benzo[d]imidazol-2-yl)-2-(4-methoxyphenyl)ethyl)-3-(cis-4-hydroxy-4-methylcyclohexyl)urea] it was 0.019 µM. As for `O=C(N[C@H](Cc1ccc(C(F)(F)F)cc1)c1nc2ccccc2[nH]1)N[C@H]1CC[C@H](O)CC1` [Example 190, 1-((R)-1-(1H-Benzo[d]imidazol-2-yl)-2-(4-(trifluoromethyl)phenyl)ethyl)-3-(trans-4-hydroxycyclohexyl)urea], the EC50 was determined as 0.019 µM. For `Cc1ccc(C[C@@H](NC(=O)N[C@H]2CC[C@H](O)CC2)c2nc3ccccc3[nH]2)cc1` [Example 191, 1-((R)-1-(1H-Benzo[d]imidazol-2-yl)-2-(p-tolyl)ethyl)-3-(trans-4-hydroxycyclohexyl)urea], the EC50 was determined as 0.031 µM.

In the case of `COc1ccc(C[C@@H](NC(=O)NC23CCC(O)(CC2)CC3)c2nc3ccc(Cl)cc3[nH]2)cc1` [Example 192, (R)-1-(1-(6-Chloro-1H-benzo[d]imidazol-2-yl)-2-(4-methoxyphenyl)ethyl)-3-(4-hydroxybicyclo[2.2.2]octan-1-yl)urea], the concentration giving a half-maximal response (EC50) was 0.0001 µM. For the compound `COc1ccc(CC(NC(=O)NC23CCC(O)(CC2)CC3)c2nc3ccccc3[nH]2)cc1F` (stereo not drawn) [Example 193, 1-(1-(1H-Benzo[d]imidazol-2-yl)-2-(3-fluoro-4-methoxyphenyl)ethyl)-3-(4-hydroxybicyclo[2.2.2]octan-1-yl)urea], the EC50 is 0.0018 µM. Turning to `O=C(N[C@H](Cc1ccc(Br)cc1)c1nc2ccc(Cl)cc2[nH]1)NC12CCC(O)(CC1)CC2` [Example 194, (R)-1-(2-(4-Bromophenyl)-1-(6-chloro-1H-benzo[d]imidazol-2-yl)ethyl)-3-(4-hydroxybicyclo[2.2.2]octan-1-yl)urea], the 50% effective concentration (EC50) came out at 0.0019 µM.
